The record followed here is PubChem BioAssay (NCI).

Common to all, as to assay: NCI tumour cell line growth inhibition, 48 h
Assay [1] deals with BT-549 breast.
Assay [2] deals with LXFL 529 NSCLC.
For assay [3], the system named is SNB-78 CNS.
Assay [4] has as its system P388 leukemia.
Assay [5] has as its system DMS 114 small cell lung.
Assay [6] deals with XF 498 CNS.

Structures are written as SMILES. In brackets after ≈: the same amount, converted by molar mass.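 Step 1: Grow cells in 96-well plates. Step 2: Expose to compound for 48 hours at 5 concentrations. Step 3: Interpolate endpoints linearly; if unreached, use highest concentration. The concentration for 50% growth inhibition is given as GI50. TGI is the concentration that stops growth completely.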

As to `CC(=O)c1c(C)nc(SSc2nc(C)c(C(C)=O)c(-c3ccc(Cl)cc3)c2C#N)c(C#N)c1-c1ccc(Cl)cc1`, in assay [1], the GI50 is 38.4 µg/mL (≈ 63.6 µM) and the TGI is 97.2 µg/mL (≈ 161 µM).

As to `CC(=O)Nc1ccc(C(=O)NN2C(=O)C(Cl)/C2=C/c2ccco2)cc1` (configuration not stated), the TGI in assay [2] was over 100 µM.

Consider `CC(=O)OCC1OC(n2cc(F)c(=O)[nH]c2=O)C(NC(=O)OCc2ccccc2)C(OC(C)=O)C1OC(C)=O` (configuration not stated), for which the TGI in assay [3], in assay [4], in assay [5] and in assay [6] was over 100 µM in each case.
